Source: US5283243A, “Piperidinoalkylbenzoxazine and piperidinoalkylbenzothiazine compounds, and medicaments containing them” (Kali-Chemie Pharma GmbH, priority 1990, dated 1994)
Where two headings read alike, the source gives them in different places.

Tests used:
[1] = system: Histamine-induced anaphylactoid reaction; assay: Inhibition of histamine-induced anaphylactoid cutaneous reaction; assay type: in vivo, Sprague-Dawley rats; settings: Rattus norvegicus, 1 h, read-out: % inhibition of Histamine-induced anaphylactoid reaction
Description: (§1) 1. Determining Inhibition of Passive Cutaneous Anaphylaxis (PCA) and Histamine-Induced Anaphylactoid Cutaneous Reaction
(§2) The inhibition of the passive cutaneous anaphylaxis and of the anaphylactoid cutaneous reaction induced by histamine was determined as follows:
To determine the histamine-induced anaphylactoid skin reaction, the animals are injected intradermally in the flank opposite to the antiserum administration with 50 μl of a physiological saline solution containing 0.8 mg/ml histamine directly before the intravenous injection of the solution containing the ovalbumin and the blue dye.
(§3) On the day of the experiment the test substances were dissolved in distilled water which contained 1 vol. % dimethylformamide and 1 vol. % of Tween™ 20 (=polyoxyethylene (20) sorbitan monolaurate). One hour before administration of the ovalbumin challenge, each animal was orally administered 2×10^-5 mole/kg of test substance in 0.5 ml of solution. For comparison purposes a control group received only the solvent.
(§4) The edematous anaphylactic (PCA) and anaphylactoid (histamine-induced) reactions caused by the stimulation of the intravenous ovalbumin injection, which manifested themselves by edema formation, swelling and exudation of blue dye, were evaluated 30 minutes after their initiation by the intravenous ovalbumin injection. This was done by visually determining the extent to which the blue dye emerged at the sites of edema formation. The percentage inhibition of anaphylactic and anaphylactoid reactions induced by the test substances in comparison with the reactions of the control animals not treated with any test substance was determined using comparison scales.
(§5) The results obtained using compounds of formula I according to the foregoing test methods are shown in the following Table A. The example numbers given for the compounds of formula I relate to the subsequent preparative examples.

[2] = system: 5-lipoxygenase (LTC4 release); assay: 5-Lipoxygenase inhibition: LTC4 release from zymosan-stimulated mouse peritoneal macrophage cells; assay type: cell-based; settings: Peritoneal macrophage cell; zymosan-stimulated mouse peritoneal macrophage cells, 10^-5 mole/l; read-out: In vitro % inhibition upon release of LTC4
Text: (§6) 5. In vitro Determination of Cyclooxygenase Inhibition and 5-Lipoxygenase Inhibition
(§7) After a cell is activated, arachidonic acid contained in cell membranes is metabolized in two ways. Leucotrienes, inter alia leucotriene C4, are formed due to the action of the enzyme 5-lipoxyqenase (=5-LO), and prostanoids are formed due to the action of the enzyme cyclooxygenase (=CO). In in vitro systems these metabolites are secreted from the cell.
(§8) To evaluate the cyclooxygenase-inhibiting and 5-lipoxygenase-inhibiting properties of the test substances, their inhibitory activity on the biosynthesis of the arachidonic acid derivatives leucotriene C4 (=LTC4) and 6-keto-prostaglandin F1α (=6-keto-PGF1 α) was determined in vitro on mouse peritoneal macrophage cells. For this purpose the LTC4 and 6-keto-PGF1 α contents of a mouse peritoneal macrophage cell culture medium were determined by zymosan stimulation as described by Scott et al. (J. Exp. Med. 152 (1980), 324-335) and by Fradin et al., (Prostaglandins, 33 (1987), 579-589).
(§9) A cell suspension containing peritoneal cells from male mice 8-10 weeks old was obtained in a known manner. A solution marketed under the designation RPMI 1640 (Manufactured by Gibco) was used as the cell culture medium, to which heparin (10 international units/ml) and antibiotics were added according to the procedure of Bonney et al. (Biochem. J. 176 (1978) 422-433). The cell suspension was adjusted to a cell concentration of 10^6 cells per ml and distributed uniformly on titer dishes containing 24 1-ml titer cells (wells). These were kept for two hours in a humidified incubator filled with air enriched with 7% CO2. Cells not adhering to the titer well walls were then removed by washing. The remaining macrophage cells adhering to the walls were incubated for about 12 hours in a suspension medium to which 0.1% of bovine serum albumin (BSA=Bovine Serum Albumin) was added. The suspension medium was then replaced by a Hanks salt solution (=Hanks Balanced Salt Solution=HBSS) with 10 mmoles of Hepes (=hydroxyethylpiperazinoethanesulfonic acid) to which a 0.1% strength solution of the test substances in aqueous, 1% strength dimethylformamide or only the solvent had been added. After 15 minutes the arachidonic acid metabolism was stimulated by adding […] of zymosan (=glycoprotein mixture isolated from cell walls of beer yeast, Saccharomyces cerevisiae, Manufactured by Sigma Chemical Co., Munich) per titre cell. After 2 hours samples of the respective supernatant liquid in each cell were examined for their 6-keto-PGF1α and LTC4 contents by an enzyme immunoassay (=EIA). This EIA is carried out following the method of Pradelles et al. (Analytical Chem. 57 (1985), 1170-1173). The determination of LTC4 and the determination of 6-keto-PGF1α were each carried out on suitable dilutions of the samples (1:50 to 1:250 for the LTC4 determination and 1:250 to 1:1,250 for the 6-keto-PGF1α determination) in comparison with a comparative scale. To determine the inhibiting effect of a 10^-5 molar concentration of the compounds, the amounts of reference eicosanoid were determined, and the inhibiting effect was calculated therefrom in % inhibition compared to the measurements of the zymosan controls.

[3] = system: cyclooxygenase (6-keto-PGF1α release); assay: Cyclooxygenase inhibition: 6-keto-PGF1α release from zymosan-stimulated mouse peritoneal macrophage cells; assay type: cell-based; settings: Peritoneal macrophage cell; zymosan-stimulated mouse peritoneal macrophage cells, 10^-5 mole/l; read-out: In vitro % inhibition upon release of 6-keto-PGF1α
Text: as §6, §7, §8, §9

[4] = system: Passive cutaneous anaphylaxis (PCA); assay: Inhibition of passive cutaneous anaphylaxis (PCA); assay type: in vivo, Sprague-Dawley rats; settings: Rattus norvegicus, 1 h, read-out: % inhibition of Passive cutaneous anaphylaxis (PCA)
Description: as §1
The PCA reaction is carried out following the methods described by Goose et al. (J.N. Immunology 16 (1969), 749) and by Martin et al. (Arch. Pharmacol. 316 (1981), 186).
The IgE-rich ovalbumin antiserum used in the test was obtained from immunized Brown-Norway rats. The were immunized with an intraperitoneal injection of a mixture of 100 μg of ovalbumin with a Bordetella pertussis suspension (Vaxicoq™, Manufactured by Institute Merieux, containing 5×10^9 organisms and 1.25 mg Al(OH)3). After 20 days the animals were re-immunized with a further intraperitoneal injection of a solution of 10 μg ovalbumin in 0.5 ml physiological saline solution. After a further four days the blood was removed from the animals and centrifuged. The resulting antiserum was stored at -20° C. until use.
as §2
Sprague-Dawley rats having a body weight of 150-180 g were injected intradermally in one flank with 50 μl of a 1:75 dilution of the IgE-rich ovalbumin antiserum in physiological saline solution to passively sensitize them to ovalbumin.
24 hours after sensitization a solution of 8.25 mg/kg of ovalbumin and 26.4 mg/kg of a blue dye (Evans's Blue) was administered to the rats intravenously according to Martin et al. to trigger passive cutaneous anaphylaxis.
as §3, §4, §5

[5] = system: mice; assay: Determination of minimum toxic dose; assay type: in vivo; settings: mouse, per os; lowest dose producing death or severe toxic symptoms, maximum dose 300 mg/kg, 24 hours
Description: 2. Determination of Minimum Toxic Dose
Maximum doses of 300 mg/kg of the test substance were administered orally to male mice weighing 20-25 g. The animals were observed carefully for 3 hours for toxicity symptoms. In addition, all symptoms and deaths were recorded over a period of 24 hours after administration. Associated symptoms were also observed and recorded. If death or severe toxic symptoms were observed, additional mice were administered increasingly lower doses. The lowest dose which produced death or severe toxic symptoms is given in the following Table B as the minimum toxic dose.

[6] = target: T1, histamine-(H1)-receptor (Cavia porcellus, UniProt P31389); assay: Anti-histamine-(H1) effect, inhibition of histamine-induced contraction of isolated guinea pig ileum in vitro; assay type: cell-based, Dunkin Hartley guinea pigs; settings: histamine 5 × 10^-6 mole/l, test substance 10^-6 mole/l
T1 construct: Segments of the ileum 1.5 cm long from Dunkin Hartley guinea pigs; from tissue; host or cells: isolated ileum segments of Dunkin Hartley guinea pigs
T1 sequence (P31389 whole entry): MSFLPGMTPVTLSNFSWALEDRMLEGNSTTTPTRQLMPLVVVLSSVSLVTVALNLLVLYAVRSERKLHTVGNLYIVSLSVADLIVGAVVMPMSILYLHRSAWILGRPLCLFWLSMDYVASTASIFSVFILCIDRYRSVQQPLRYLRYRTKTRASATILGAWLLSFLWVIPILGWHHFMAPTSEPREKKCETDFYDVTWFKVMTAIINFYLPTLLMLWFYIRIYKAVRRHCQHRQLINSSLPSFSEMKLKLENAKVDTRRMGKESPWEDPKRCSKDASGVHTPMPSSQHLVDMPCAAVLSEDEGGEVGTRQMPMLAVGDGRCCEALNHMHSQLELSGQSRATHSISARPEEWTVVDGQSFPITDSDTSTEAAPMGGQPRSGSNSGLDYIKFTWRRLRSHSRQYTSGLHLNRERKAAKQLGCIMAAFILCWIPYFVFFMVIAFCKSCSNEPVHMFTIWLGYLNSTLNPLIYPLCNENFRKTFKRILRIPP
Description: 3. Investigation of Anti-Histamine-(H1) Effect Based on Histamine-(H1)-Receptor Antagonism In Vitro
To investigate the histamine-(H1)-receptor antagonism of the test substances, the inhibiting effect of the substances on histamine-induced contractions of the smooth muscle was determined in vitro on the isolated organ. Isolated strips of organ from the ileum are suitable for this purpose. In an organ bath of physiological saline solution the smooth muscle strips react to the addition of histamine by contracting. […] The extent of regression of the contraction is an indication of the anti-histamine-(H1) activity of the compounds. The investigation was carried out analogously to the method originally described by Magnus (Pfluegers Arch. 102, 123 (1904)). Procedure for determining the smooth muscle contraction inhibiting effect on isolated guinea pig ileum induced by a 5×10^-6 molar histamine concentration.
Segments of the ileum 1.5 cm long from Dunkin Hartley guinea pigs having a body weight of 300 500 g were used for the test. Each strip was placed in an organ bath of 10 ml of physiological saline solution according to Krebs-Henseleit and attached to a conventional apparatus for isotonic measurement of changes in length of the ileum strips (automated Celaster measuring apparatus), so that the tissue was under 1 g of tension. The bath was kept at a pH of 7.4 and gassed with a mixture of 5% CO2 and 95% 02. After an equilibration phase, an isotonic contraction of the tissue was induced by adding histamine in a final concentration of 5×10^-6 mole/liter and washing it out again after a contact time of 30 seconds. Only tissues samples from which three reproducible contractions were obtained at 10 minute intervals were used in the subsequent test. The test substances were then added in a final concentration of 10^-6 mole/liter, and after 30 seconds contact time histamine was again added up to a concentration of 5×10^-6 mole/liter. The resulting contractions were measured over 30 seconds. The tissue was then washed several times over a period of 10 minutes. Histamine was then added again to stimulate a contraction. The resulting contractions were again measured over 30 seconds. The difference between the amplitude of the contraction obtained by histamine addition alone and the amplitude of the contraction obtained in the presence of the test substance was determined and expressed in terms of % inhibition.
The inhibiting effects on the contractions induced by histamine 30 seconds after administration of the test substance and on the contractions induced by the addition of histamine 10 minutes later are listed in the table.

[7] = rats, 2 × 10^-5 mole/kg dose per os, one hour before challenge
[8] = rats, 2 × 10^-5 mole/kg dose per os, one hour before ovalbumin challenge

Compound | inhibition in vivo at 20 µmol/kg [1, 7] [%] | inhibition at 10 µM [2] [%] | inhibition at 10 µM [3] [%] | inhibition in vivo at 20 µmol/kg [4, 8] [%] | Minimum toxic dose [5] [mg/kg] | further results
O=C1Nc2ccccc2SC1CCCCN1CCC(Nc2nc3ccccc3n2Cc2ccc(F)cc2)CC1 (centres unmarked) [Example 1, 2-{4-[4-(N-(1-(4-fluorophenylmethyl)-1H-benzimidazol-2-yl)-amino)-piperidin-1-yl]-butyl}-2H-1,4-benzothiazine-3(4H)-one] | 85 | 87 | 52 | 85 | – | –
O=C1Nc2ccccc2OC1CCCN1CCC(Cc2ccccc2)CC1 (centres unmarked) [Example 2, 2-[3-(4-benzylpiperidin-1-yl)-propyl]-2H-1,4-benzoxazine-3(4H)-one] | – | 54 | 13 | – | – | –
S=C1Nc2ccccc2OC1CCCN1CCC(Cc2ccccc2)CC1 (centres unmarked) [Example 3, 2-[3-(4-benzylpiperidin-1-yl)-propyl]-2H-1,4-benzoxazine-3(4H)-thione] | – | 16 | 17 | – | 300 | –
O=C(c1ccc(F)cc1)C1CCN(C2Sc3ccccc3NC2=O)CC1 (centres unmarked) [Example 4, 2-[4-(4-fluorobenzoyl)-piperidin-1-yl]-2H-1,4-benzothiazine-3(4H)-one] | – | 0 | 71 | – | 300 | –
O=C1Nc2ccccc2OC1CCCCN1CCC(c2ccccc2)CC1 (centres unmarked) [Example 9] | – | – | – | – | – | in vitro (H1)-receptor antagonism, % inhibition of histamine-induced ileum contractions after 30 seconds [6]: 35%; in vitro (H1)-receptor antagonism, % inhibition of histamine-induced ileum contractions after 10 minutes [6]: 12%
O=C1Nc2ccccc2SC1CCCCN1CC=C(c2ccccc2)CC1 (centres unmarked) [Example 10, 2-[4-(4-phenyl-1,2,3,6-tetrahydropyridin-1-yl)-butyl]-2H-1,4-benzothiazine-3(4H)one] | 30 | 37 | 30 | 55 | 300 | –
O=C1Nc2ccccc2SC1CCCCN1CCC(O)(c2ccccc2)CC1 (centres unmarked) [Example 11] | 20 | – | – | 45 | – | –
O=C1Nc2ccccc2OC1CCCCN1CC=C(c2ccccc2)CC1 (centres unmarked) [Example 12] | 20 | – | – | 35 | – | –
O=C1Nc2ccccc2OC1CCCCN1CCC(O)(c2ccccc2)CC1 (centres unmarked) [Example 13] | – | – | – | – | – | in vitro (H1)-receptor antagonism, % inhibition of histamine-induced ileum contractions after 30 seconds [6]: 49%; in vitro (H1)-receptor antagonism, % inhibition of histamine-induced ileum contractions after 10 minutes [6]: 8%
N#CC1(c2ccccc2)CCN(CCCCC2Sc3ccccc3NC2=O)CC1 (centres unmarked) [Example 15] | – | – | – | – | 300 | inhibition in vivo at 20 µmol/kg [1]: 10%; inhibition in vivo at 20 µmol/kg [4]: 30%
O=C1Nc2ccccc2SC1N1CCC(Cc2ccccc2)CC1 (centres unmarked) [Example 16] | – | 97 | 70 | – | > 300 | –
COc1ccc2c(c1)SC(CCCCN1CCC(C(=O)c3ccc(F)cc3)CC1)C(=O)N2 (centres unmarked) [Example 18, 7-methoxy-2-(4-[4-(4-fluorobenzoyl)-piperidin-1-yl]-butyl)-2H-1,4benzothiazine-3(4H)-one] | 50 | – | – | 90 | – | –
O=C1Nc2ccc(Cl)cc2SC1CCCCN1CCC(Nc2nc3ccccc3n2Cc2ccc(F)cc2)CC1 (centres unmarked) [Example 20] | 40 | – | – | 20 | – | –
